Results as given in article PMC12352620, “Fragment-based discovery of dual ligand pharmacophores for lipid-sensing transcription factors for designed polypharmacology” (RSC Medicinal Chemistry, 2025).

Assays:
Assay type in all cases: cell-based
PPARγ = molecular target: T1, PPARγ (Homo sapiens, UniProt P37231); experiment: Gal4-hybrid reporter gene assay PPARγ; conditions: mean ± S.E.M., n ≥ 3; for max. fold activation PPARγ: maximum reporter activation vs DMSO (0.1%) treated cells
T1 construct: expressed in transfected cells; host or cells: HEK293T
T1 sequence (P37231 238-503 limits assumed): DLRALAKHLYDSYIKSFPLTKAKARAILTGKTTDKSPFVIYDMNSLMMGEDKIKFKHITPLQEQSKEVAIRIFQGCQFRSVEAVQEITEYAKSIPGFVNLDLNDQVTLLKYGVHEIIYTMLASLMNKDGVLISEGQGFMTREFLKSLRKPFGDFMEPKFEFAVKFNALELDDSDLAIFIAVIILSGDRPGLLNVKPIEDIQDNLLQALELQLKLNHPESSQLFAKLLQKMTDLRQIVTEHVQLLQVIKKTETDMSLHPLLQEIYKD
Protocol: (§1) NR modulation was determined as described previously[45] in Gal4 hybrid reporter gene assays in HEK293T cells (German Collection of Microorganisms and Cell Culture GmbH, DSMZ) using pFR-Luc (Stratagene, La Jolla, CA, USA; reporter), pRL-SV40 (Promega, Madison, WI, USA; internal control) and the hybrid receptor clones pFA-CMV-hTHRα-LBD,[46] pFA-CMV-hPPARγ-LBD,[47] pFA-CMV-hFXR-LBD,[48] and pFA-CMV-hRXRα-LBD,[49] coding for the hinge region and ligand binding domain of the canonical isoform of the respective NR. Cells were cultured in Dulbecco's modified Eagle's medium (DMEM), high glucose supplemented with 10% fetal calf serum (FCS), sodium pyruvate (1 mM), penicillin (100 U mL^−1), and streptomycin (100 μg mL^−1) at 37 °C and 5% CO2 and seeded in 96-well plates (3 × 10^4 cells per well). After 24 h, medium was changed to Opti-MEM without supplements and cells were transiently transfected using Lipofectamine LTX reagent (Invitrogen, Carlsbad, CA, USA) according to the manufacturer's protocol. Five hours after transfection, cells were incubated with the test compounds in Opti-MEM supplemented with penicillin (100 U mL^−1), streptomycin (100 μg mL^−1) and 0.1% DMSO for 16 h before luciferase activity was measured using the Dual-Glo Luciferase Assay System (Promega) according to the manufacturer's protocol on a Tecan Spark luminometer (Tecan Deutschland GmbH, Crailsheim, Germany). Firefly luminescence was divided by Renilla luminescence and multiplied by 1000 resulting in relative light units (RLU) to normalize for transfection efficiency and cell growth. Fold activation was obtained by dividing the mean RLU of test compound by the mean RLU of the untreated control. All samples were tested in at least three biologically independent experiments in duplicates. For dose–response curve fitting and calculation of EC50 values, the equation “[agonist] vs. response − variable slope (four parameters)” was used in GraphPad Prism (version 7.00, GraphPad Software, La Jolla, CA, USA). For selectivity profiling, the hybrid reporter gene assay was performed with Gal4 fusion receptor plasmids for RARα, PPARα, PPARδ, VDR, CAR and LXRα. The following reference agonists were used: triiodothyronine (1 μM, THR), all-trans retinoic acid (1 μM, RAR), GW7647 (1 μM, PPARα), pioglitazone (1 μM, PPARγ), L165041 (1 μM, PPARδ), calcitriol (1 μM, VDR), CITCO (1 μM, CAR), T0901317 (1 μM, LXR), GW4064 (1 μM, FXR), bexarotene (1 μM, RXR).

FXR = molecular target: T2, FXR (Homo sapiens, UniProt Q96RI1); experiment: Gal4-hybrid reporter gene assay FXR; conditions: mean ± S.E.M., n ≥ 3; for EC50 FXR / EC50: HEK293T, Gal4-hybrid reporter, Inactive = tested 1–300 μM; for max. fold activation FXR: maximum reporter activation vs DMSO (0.1%) treated cells
T2 construct: expressed in transfected cells; host or cells: HEK293T
T2 sequence (Q96RI1 262-486 limits assumed): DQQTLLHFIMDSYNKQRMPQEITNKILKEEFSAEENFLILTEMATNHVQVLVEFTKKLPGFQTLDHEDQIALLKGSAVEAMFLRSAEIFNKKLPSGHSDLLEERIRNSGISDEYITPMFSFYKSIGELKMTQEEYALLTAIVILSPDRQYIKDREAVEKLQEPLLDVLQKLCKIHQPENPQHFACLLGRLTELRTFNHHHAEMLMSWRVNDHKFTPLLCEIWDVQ
Protocol: as §1

THRα = molecular target: T3, THRα (Homo sapiens, UniProt P10827); experiment: Gal4-hybrid reporter gene assay THRα; conditions: for EC50 / EC50 THRα: HEK293T, Gal4-hybrid reporter, Inactive = tested 1–300 μM; for max. fold activation THRα: maximum reporter activation vs DMSO (0.1%) treated cells
T3 construct: expressed in transfected cells; host or cells: HEK293T
T3 sequence (P10827 128-410 isoform P10827-2 limits assumed): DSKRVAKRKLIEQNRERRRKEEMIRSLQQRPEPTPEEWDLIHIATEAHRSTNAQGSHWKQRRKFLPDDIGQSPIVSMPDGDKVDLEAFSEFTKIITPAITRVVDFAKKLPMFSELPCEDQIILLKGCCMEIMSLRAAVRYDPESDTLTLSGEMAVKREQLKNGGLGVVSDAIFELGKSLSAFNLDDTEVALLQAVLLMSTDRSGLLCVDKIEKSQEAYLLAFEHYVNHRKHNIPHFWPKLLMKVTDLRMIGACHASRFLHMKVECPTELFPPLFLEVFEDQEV
Protocol: as §1

RXRα = molecular target: T4, RXRα (Homo sapiens, UniProt P19793); experiment: Gal4-hybrid reporter gene assay RXRα; conditions: mean ± S.E.M., n ≥ 3; for EC50 / EC50 RXRα: HEK293T, Gal4-hybrid reporter, Inactive = tested 1–300 μM; for max. fold activation RXRα: maximum reporter activation vs DMSO (0.1%) treated cells
T4 construct: expressed in transfected cells; host or cells: HEK293T
T4 sequence (P19793 227-458 limits assumed): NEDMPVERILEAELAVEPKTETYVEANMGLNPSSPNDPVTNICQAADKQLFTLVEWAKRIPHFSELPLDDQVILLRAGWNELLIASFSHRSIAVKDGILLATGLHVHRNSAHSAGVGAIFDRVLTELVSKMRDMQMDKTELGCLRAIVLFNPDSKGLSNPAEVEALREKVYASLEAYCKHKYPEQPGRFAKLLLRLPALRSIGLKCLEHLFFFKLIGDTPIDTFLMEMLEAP
Protocol: as §1

[1] = HEK293T, Gal4-hybrid reporter, Inactive = tested 1–300 μM

C/C(=C\C(=O)O)c1ccc(C(F)(F)F)cc1 [compound 91]
EC50 (PPARγ; [1]): 255 ± 15 µM | max. fold activation PPARγ (PPARγ): (4.3 ± 0.2-fold) | EC50 FXR (FXR): Inactive | EC50 (THRα; mean ± S.E.M., n ≥ 3): 92 ± 29 µM | max. fold activation THRα (THRα; mean ± S.E.M., n ≥ 3): (2.7 ± 0.3-fold) | EC50 (RXRα): 134 ± 41 µM | max. fold activation RXRα (RXRα): (1.9 ± 0.9-fold)

O=C(O)c1ccc(-c2cccc(F)c2)o1 [compound 53]
EC50 (PPARγ; [1]): 126 ± 17 µM | max. fold activation PPARγ (PPARγ): (14 ± 1-fold) | EC50 (FXR): 53 ± 10 µM | max. fold activation FXR (FXR): (1.9 ± 0.1-fold) | EC50 (THRα; mean ± S.E.M., n ≥ 3): 194 ± 54 µM | max. fold activation THRα (THRα; mean ± S.E.M., n ≥ 3): (5 ± 1-fold) | EC50 (RXRα): 54 ± 9 µM | max. fold activation RXRα (RXRα): (2.2 ± 0.13-fold)

Cc1cccc(C(=O)/C=C/C(=O)O)c1 [4.3, (E)-4-Oxo-4-(m-tolyl)but-2-enoic acid]
EC50 (PPARγ; [1]): 38 ± 1 µM | max. fold activation PPARγ (PPARγ): (19 ± 1-fold) | EC50 (FXR): 22 ± 5 µM | max. fold activation FXR (FXR): (3.4 ± 0.4-fold) | EC50 (THRα; mean ± S.E.M., n ≥ 3): 19 ± 8 µM | max. fold activation THRα (THRα; mean ± S.E.M., n ≥ 3): (3.1 ± 0.6-fold) | EC50 (RXRα): 30 ± 5 µM | max. fold activation RXRα (RXRα): (4.7 ± 0.5-fold)

O=C(O)c1ccc(OCc2ccccc2)cc1 [compound 22]
EC50 (PPARγ; [1]): 136 ± 19 µM | max. fold activation PPARγ (PPARγ): (28 ± 2-fold) | EC50 FXR (FXR): Inactive | EC50 (THRα; mean ± S.E.M., n ≥ 3): 95 ± 9 µM | max. fold activation THRα (THRα; mean ± S.E.M., n ≥ 3): (8.8 ± 0.5-fold) | EC50 RXRα (RXRα): Inactive

O=C(O)/C=C/C(=O)c1ccc(Cl)cc1 [4.5, (E)-4-Oxo-4-(4-chlorophenyl)but-2-enoic acid]
EC50 (PPARγ; [1]): 30 ± 4 µM | max. fold activation PPARγ (PPARγ): (12 ± 2-fold) | EC50 (FXR): 40 ± 3 µM | max. fold activation FXR (FXR): (3.1 ± 0.3-fold) | EC50 (THRα; mean ± S.E.M., n ≥ 3): 46 ± 7 µM | max. fold activation THRα (THRα; mean ± S.E.M., n ≥ 3): (7 ± 2-fold) | EC50 (RXRα): 46 ± 1 µM | max. fold activation RXRα (RXRα): (4.0 ± 0.2-fold)

O=C(O)c1ccc(Oc2ccccc2)cc1 [compound 44]
EC50 (PPARγ; [1]): 99 ± 12 µM | max. fold activation PPARγ (PPARγ): (38 ± 3-fold) | EC50 FXR (FXR): Inactive | EC50 (THRα; mean ± S.E.M., n ≥ 3): 105 ± 28 µM | max. fold activation THRα (THRα; mean ± S.E.M., n ≥ 3): (18 ± 3-fold) | EC50 RXRα (RXRα): Inactive

Cc1ccc(C(=O)/C=C/C(=O)O)cc1 [4.4, (E)-4-Oxo-4-(p-tolyl)but-2-enoic acid]
EC50 (PPARγ; [1]): 37 ± 1 µM | max. fold activation PPARγ (PPARγ): (17.5 ± 0.9-fold) | EC50 (FXR): 27 ± 9 µM | max. fold activation FXR (FXR): (3.4 ± 0.7-fold) | EC50 (THRα; mean ± S.E.M., n ≥ 3): 28 ± 3 µM | max. fold activation THRα (THRα; mean ± S.E.M., n ≥ 3): (3.4 ± 0.4-fold) | EC50 (RXRα): 35 ± 1 µM | max. fold activation RXRα (RXRα): (5.3 ± 0.2-fold)

O=C(O)COc1ccccc1Cc1ccccc1 [2.43]
EC50 (PPARγ; [1]): 47 ± 3 µM | max. fold activation PPARγ (PPARγ): (17.4 ± 0.3-fold) | EC50 FXR (FXR): Inactive | EC50 THRα (THRα; mean ± S.E.M., n ≥ 3): Inactive | EC50 RXRα (RXRα): Inactive

CSc1nccn1-c1ccc(C(=O)O)cc1 [compound 30]
EC50 (PPARγ; [1]): 53 ± 5 µM | max. fold activation PPARγ (PPARγ): (2.4 ± 0.1-fold) | EC50 (FXR): 162 ± 31 µM | max. fold activation FXR (FXR): (2.2 ± 0.3-fold) | EC50 (THRα; mean ± S.E.M., n ≥ 3): 185 ± 16 µM | max. fold activation THRα (THRα; mean ± S.E.M., n ≥ 3): (2.5 ± 0.4-fold) | EC50 RXRα (RXRα): Inactive

O=C(O)C(c1ccccc1)(c1ccccc1)c1ccccc1 [compound 19]
EC50 PPARγ (PPARγ; [1]): Inactive | EC50 FXR (FXR): Inactive | type of activity on THRα (THRα; Gal4-hybrid reporter gene assay): Inverse agonist | remaining THRα activity (THRα; inverse agonism, % remain., mean ± S.E.M., n ≥ 3): (41 ± 5% remain.) | IC50 (THRα; inverse agonism, mean ± S.E.M., n ≥ 3): 36 µM | EC50 RXRα (RXRα): Inactive

O=C(O)/C=C/C(=O)c1cccc(Cl)c1 [2.16]
EC50 (PPARγ; [1]): 34 ± 7 µM | max. fold activation PPARγ (PPARγ): (8.2 ± 0.5-fold) | EC50 FXR (FXR): Inactive | EC50 THRα (THRα; mean ± S.E.M., n ≥ 3): Inactive | EC50 RXRα (RXRα): Inactive
